Target: T1, human Orexin-1 receptor (hOX1R) (Homo sapiens, UniProt O43613)
T1 construct: host or cells: CHO-K1
T1 sequence (O43613 1-425): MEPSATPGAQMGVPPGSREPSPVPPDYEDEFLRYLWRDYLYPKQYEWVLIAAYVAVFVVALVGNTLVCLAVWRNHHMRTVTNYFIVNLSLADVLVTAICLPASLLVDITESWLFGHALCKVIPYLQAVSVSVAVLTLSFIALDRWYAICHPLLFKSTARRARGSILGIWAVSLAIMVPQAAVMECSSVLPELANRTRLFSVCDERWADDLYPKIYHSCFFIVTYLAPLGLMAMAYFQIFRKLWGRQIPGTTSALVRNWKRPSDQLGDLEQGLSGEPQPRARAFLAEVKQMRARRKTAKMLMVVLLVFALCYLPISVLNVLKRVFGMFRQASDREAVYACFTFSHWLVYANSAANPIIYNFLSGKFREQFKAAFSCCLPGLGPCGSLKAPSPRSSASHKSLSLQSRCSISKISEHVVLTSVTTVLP
Test: Ca2+-flux assay for IC50 determination in CHO-hOX1R cells (Orexin-A stimulated)
Assay type: cell-based
Details: 5nM Orexin-A agonist, fluo-4 fluorescence, compounds 1.28nM to 20µM, triplicates, read-out: 0X1
Text: A CHO-K1 cell line stably expressing human Orexin-1 receptor (hOX1R, coding sequence of AF041243) was obtained from Euroscreen/PerkinElmer (CHO-hOX1R, ES-330-C). A plasmid containing the human Orexin-2 receptor (hOX2R) cDNA was purchased from RZPD (RZPDo834A1045-pT-REx-DEST30). The human Orexin-2 receptor coding region was amplified in a gradient PCR reaction using hOX2Rfor (5' ccaggatccgc […]) and hOX2Rrev (5' […]) primers containing restriction sites for the restriction enzymes BamHI and NotI. The PCR reaction was performed with the LightCycler system from Roche Applied Science. The amplified DNA fragment was digested with restriction enzymes BamHI and Notl (Fermentas) and subsequently cloned into the BamHI/NotI sites of the pFB-Neo vector (Stratagene) thereby generating plasmid pFB-Neo-hOX2R. For a stably expressing CHO-hOX2R cell line viral transduction of CHO-K1 cells were performed by using the pFB-Neo-hOX2R plasmid and the pVPack vector system from Stratagene according to the manufacturer's manual. Cells expressing the hOX2 receptor were selected using G418 at a final concentration of 500µg/ml and single cell clones were produced by limited dilution cloning.
CHO-hOX1R cells were grown in HAM F12 Nutrient Mixture (Sigma, N6658), 10%Fetal Bovine Serum (Sigma, F9665), 1% Penstrep (Sigma, p4333) and […] G418 (Sigma, A1720). CHO-hOX2R cells were grown in DMEM F12 medium (Sigma, D8437) supplemented with 10%Fetal Bovine Serum (Sigma, F9665), 1% Penstrep (Sigma, p4333) and […] G418 (Sigma, A1720). Cells were maintained under 5% CO2 atmosphere at 37°C. Cells were passaged every 2-3 days.
CHO-hOX1R and CHO-hOX2R cells were seeded at a density of 7500 cells per well into black, 384 well Costar Cellbind plates and cultured overnight in the appropriate cell culture medium as described above without G418 selection. The next day the medium was removed and the cells were incubated for 1.5hrs at 37°C in fluo-4, AM dye solution [2µM fluo-4,AM (Molecular Probes; F-14202, Lot#28C1-12) in 5mM probenecid (Sigma, P-8761, Lot# 121K1662), 0.1% Bovine Serum Albumin (BSA, MERCK, 1.12018.0100), 1xHBSS (Invitrogen, 14025-050), 20mM HEPES (Invitrogen,. 15630-056)]. […] All compound concentrations were measured in triplicates. Subsequently, agonist solution (5nM Orexin-A, TOCRIS, 1455) in 5mM probenecid, 0.1% BSA, 1xHBSS, 20mM HEPES was added during incubation of the plate at 37°C in the fluorescence plate reader (FlexStation, Molecular Devices). Fluorescence was measured for 0-60 seconds per well at an excitation of 485nm and emission of 538nm. For EC50 determination of Orexin-A the cells were incubated as described above for 20min at 37°C in probenecid buffer (5mM probenecid, 0.1% BSA, 1xHBSS, 20mM HEPES, 1%DMSO) without compound solution. Agonist injection occurred in the fluorescence plate reader (FlexStation, Molecular Devices) at different concentrations ranging from 0-100nM in 5mM probenecid, 0.1% BSA, 1xHBSS, 20mM HEPES. Detection of fluorescence was as described above.

Cc1c(C(=O)Nc2ccc3c(c2)OCCO3)oc2ccccc12 [Example 1, N-(2,3-Dihydro-1,4-benzodioxin-6-yl)-3-methyl-2-benzofurancarboxamide] and CCN(CC)c1ccc(NC(=O)c2oc3ccccc3c2C)cc1 [Example 2, N-[4-(Diethylamino)phenyl]-3-methyl-2-benzofurancarboxamide] cannot be ordered by IC50: under 3 µM for the first, under 0.3 µM for the second.

Cc1nc2ccc(NC(=O)c3oc4ccccc4c3C)cc2o1 [Example 3, N-(2-Methyl-6-benzoxazolyl)-3-methyl-2-benzofurancarboxamide] and CCN(CC)c1ccc(NC(=O)c2oc3ccccc3c2COC)cc1 [Example 4, N-[4-(Diethylamino)phenyl]-3-(methoxymethyl)-2-benzofurancarboxamide] cannot be ordered by IC50: under 0.3 µM for the first, under 1 µM for the second.

CCc1c(C(=O)Nc2ccc(N(CC)CC)cc2)oc2ccccc12 [Example 5, N-[4-(Diethylamino)phenyl]-3-ethyl-2-benzofurancarboxamide] and CCc1c(C(=O)Nc2ccc3nc(C)oc3c2)oc2ccccc12 [Example 6, N-(2-Methyl-6-benzoxazolyl)-3-ethyl-2-benzofurancarboxamide] cannot be ordered by IC50: under 0.3 µM for the first, under 0.3 µM for the second.

COc1ccc(NC(=O)c2oc3ccccc3c2C)cc1Cl [Example 7, N-(3-Chloro-4-methoxyphenyl)-3-methyl-2-benzofurancarboxamide] and Cc1c(C(=O)Nc2ccc3c(c2)OCCCO3)oc2ccccc12 [Example 8, N-(3,4-dihydro-2H-1,5-benzodioxepin-7-yl)-3-methyl-2-benzofurancarboxamide] cannot be ordered by IC50: under 3 µM for the first, under 3 µM for the second.

CCOc1ccc(NC(=O)c2oc3ccccc3c2C)cc1 [Example 9, N-(4-Ethoxyphenyl)-3-methyl-2-benzofurancarboxamide] and Cc1c(C(=O)Nc2ccc3c(ccn3C)c2)oc2ccccc12 [Example 10, N-(1-Methyl-1H-indol-5-yl)-3-methyl-2-benzofurancarboxamide] cannot be ordered by IC50: under 3 µM for the first, under 1 µM for the second.

CCN(CC)c1ccc(NC(=O)c2oc3ccccc3c2OC)cc1 [Example 12, N-[4-(Diethylamino)phenyl]-3-methoxy-2-benzofurancarboxamide] and CCN(CC)c1ccc(NC(=O)c2cc3ccccc3o2)cc1 [Example 13, N-[4-(Diethylamino)phenyl]-2-benzofurancarboxamide] cannot be ordered by IC50: under 0.3 µM for the first, under 1 µM for the second.

Cc1nc2ccc(NC(=O)c3oc4ccccc4c3C)cc2s1 [Example 14, N-(2-Methyl-6-benzothiazolyl)-3-methyl-2-benzofurancarboxamide] and CCN(CC)c1ccc(NC(=O)c2oc3ccccc3c2NC(C)=O)cc1 [Example 15, N-[4-(Diethylamino)phenyl]-3-(acetylamino)-2-benzofurancarboxamide] cannot be ordered by IC50: under 1 µM for the first, under 3 µM for the second.

Compound “N-(4-Thioanisolyl)-3-methyl-2-benzofurancarboxamide [Example 11]” has an IC50 of under 1 µM.

Target: T2, OX1 (Mus musculus, UniProt P58307)
T2 sequence (P58307 1-416): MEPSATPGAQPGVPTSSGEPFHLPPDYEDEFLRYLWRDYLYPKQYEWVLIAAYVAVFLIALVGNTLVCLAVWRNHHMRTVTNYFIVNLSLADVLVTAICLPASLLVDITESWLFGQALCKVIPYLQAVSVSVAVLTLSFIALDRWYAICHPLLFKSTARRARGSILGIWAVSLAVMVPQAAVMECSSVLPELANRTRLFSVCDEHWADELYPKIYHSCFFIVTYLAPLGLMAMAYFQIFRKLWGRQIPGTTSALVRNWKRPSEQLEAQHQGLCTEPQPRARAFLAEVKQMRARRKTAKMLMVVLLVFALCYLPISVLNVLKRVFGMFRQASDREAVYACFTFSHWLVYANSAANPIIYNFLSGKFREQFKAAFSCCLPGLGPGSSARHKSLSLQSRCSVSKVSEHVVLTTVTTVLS
Test: not given
Details: pretreatment before naloxone-precipitated withdrawal; Sharf et al, Biol Psychiatry, 2008; cited from earlier work

In the case of Cc1nc2ccc(NC(=O)Nc3ccnc4cccnc34)cc2o1 [SB-334867], the withdrawal symptoms is listed as “striking reduction in several withdrawal symptoms”.
